Earlier results as cited in publication PMC9610729, “Anticholinesterase Activity of Selected Medicinal Plants from Navarra Region of Spain and a Detailed Phytochemical Investigation of Origanum vulgare L. ssp. vulgare” (Molecules, 2022).
Where two headings read alike, the source gives them in different places.

Assays:
AChE [1] = system: AChE
AChE [2] = system: AChE; design: method as in PMID 35745206

Row | SMILES | AChE inhibition (AChE [1]) | AChE inhibition (AChE [2])
1 | O=c1c(O)c(-c2ccc(O)c(O)c2)oc2cc(O)cc(O)c12 [quercetin] | efficient AChE inhibitors | –
2 | O=c1cc(-c2ccc(O)c(O)c2)oc2cc(O)cc(O)c12 [luteolin] | to a lesser extent | –
3 | COc1cc(C(=O)O)cc(OC)c1O [Compound 7, Syringic acid] | – | high inhibition percentage
4 | O=c1c(O)c(-c2ccc(O)cc2)oc2cc(O)cc(O)c12 [kaempferol] | efficient AChE inhibitors | –
5 | COC(=O)c1cc(OC)c(O)c(OC)c1 [methyl syringinate] | – | best properties
